According to PubChem BioAssay (NCI):
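48-hour exposure; five concentrations; linearly interpolated endpoints. TGI marks complete inhibition of growth.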

How the values were obtained:
Assay in all cases: NCI tumour cell line growth inhibition, 48 h
ACHN renal = system: ACHN renal
SNB-75 CNS = system: SNB-75 CNS
SNB-19 CNS = system: SNB-19 CNS
UACC-62 melanoma = system: UACC-62 melanoma
HOP-92 NSCLC = system: HOP-92 NSCLC
A549 NSCLC = system: A549 NSCLC
HT29 colon = system: HT29 colon
SW-620 colon = system: SW-620 colon
HCT-15 colon = system: HCT-15 colon
OVCAR-3 ovarian = system: OVCAR-3 ovarian
HCC-2998 colon = system: HCC-2998 colon
NCI-H522 lung = system: NCI-H522 lung

For COC(=O)/C(=C\c1cn(C(C)=O)c2ccccc12)P(=O)(OC)OC, the TGI (ACHN renal) was 25.4 µM, the TGI (SNB-75 CNS) was 26.4 µM and the TGI (SNB-19 CNS) was 32 µM. The TGI (UACC-62 melanoma) was 31.1 µM, the TGI (HOP-92 NSCLC) was 33.8 µM and the TGI (A549 NSCLC) was 35.8 µM. It also gave a TGI (HT29 colon) of 29.7 µM, a TGI (SW-620 colon) of 40.7 µM and a TGI (HCT-15 colon) of 28.1 µM. For the same compound, the TGI (OVCAR-3 ovarian) was 32.4 µM, the TGI (HCC-2998 colon) was 30.4 µM and the TGI (NCI-H522 lung) was 23.2 µM.
For COC(=O)CCC(C)C1CCC2C3CCC4CC5CCC4(C)C3(O5)C(Br)C(Br)C12C (stereo not given), the TGI (ACHN renal) was > 100 µM, the TGI (SNB-75 CNS) was > 100 µM and the TGI (SNB-19 CNS) was > 100 µM. The TGI (UACC-62 melanoma) was > 100 µM, the TGI (HOP-92 NSCLC) was > 100 µM and the TGI (A549 NSCLC) was > 100 µM. For the same compound, the TGI (HT29 colon) was > 100 µM, the TGI (SW-620 colon) was > 100 µM and the TGI (HCT-15 colon) was > 100 µM. For the same compound, the TGI (OVCAR-3 ovarian) was > 100 µM, the TGI (HCC-2998 colon) was > 100 µM and the TGI (NCI-H522 lung) was > 100 µM.
CC1CC(C)(O)CC(C(O)CC2CC(=O)NC(=O)C2)C1=O (stereo not given) gave a TGI (ACHN renal) of 1.17 µM, a TGI (SNB-75 CNS) of 1.27 µM and a TGI (SNB-19 CNS) of 2.24 µM. The TGI (UACC-62 melanoma) was 0.62 µM, the TGI (HOP-92 NSCLC) was 0.625 µM and the TGI (A549 NSCLC) was 7.19 µM. It also gave a TGI (HT29 colon) of 1.61 µM, a TGI (SW-620 colon) of 1.53 µM and a TGI (HCT-15 colon) of 2.94 µM. For the same compound, the TGI (OVCAR-3 ovarian) was 3.43 µM, the TGI (HCC-2998 colon) was 1.59 µM and the TGI (NCI-H522 lung) was < 0.0476 µM.
In the case of Clc1ccc(-c2nc3ccc(C45CC6CC(CC(C6)C4)C5)cc3[nH]2)cc1, the TGI (ACHN renal) is reported as > 100 µM, the TGI (SNB-75 CNS) is reported as > 100 µM and the TGI (SNB-19 CNS) is reported as > 100 µM. The TGI (UACC-62 melanoma) was > 100 µM, the TGI (HOP-92 NSCLC) was > 95.3 µM and the TGI (A549 NSCLC) was > 100 µM. For the same compound, the TGI (HT29 colon) was > 100 µM, the TGI (SW-620 colon) was > 100 µM and the TGI (HCT-15 colon) was > 72.8 µM. The TGI (OVCAR-3 ovarian) was > 100 µM, the TGI (HCC-2998 colon) was > 77.7 µM and the TGI (NCI-H522 lung) was > 100 µM.
For [C-]#[N+]C1(C(=O)OCC)CC1, the TGI (ACHN renal) was > 100 µM, the TGI (SNB-75 CNS) was > 100 µM and the TGI (SNB-19 CNS) was > 100 µM. For the same compound, the TGI (UACC-62 melanoma) was > 100 µM, the TGI (HOP-92 NSCLC) was > 100 µM and the TGI (A549 NSCLC) was > 100 µM. For the same compound, the TGI (HT29 colon) was > 100 µM, the TGI (SW-620 colon) was > 100 µM and the TGI (HCT-15 colon) was > 100 µM. For the same compound, the TGI (OVCAR-3 ovarian) was > 100 µM, the TGI (HCC-2998 colon) was > 100 µM and the TGI (NCI-H522 lung) was > 100 µM.
